Laboratory results taken from patent US4699907A, “4-morpholinyl-1H-indoles, pharmaceutical compositions and use” (Roussel Uclaf, priority 1985, dated 1987).

Tests used:
[1] = system: mice; test: Acute toxicity study; type: in vivo; details: oral administration to mice
Experimental: The lethal doses LDO of the different compounds tested were evaluated after oral administration to mice.

[2] = system: enolase γγ; test: Test for enolase (kainic acid induced neuron lesions); type: in vivo; details: mice; 1 mg/kg intraperitoneally one hour before 35 mg/kg sub-cutaneous kainic acid
[3] = system: male rats; test: Test of labyrinth in T after partial lesion of the septo hippocampic route; type: in vivo, rat; details: electrolytic partial septo-hippocampic lesion, 20 mg/kg orally, 1 hour before test, days +5 to +8, compared to untreated animals
Experimental: A: Test of labyrinth in T after partial lesion of the septo hippocampic route
By means of an electrolytic partial lesion of neurons of the septo-hippocampic route, a disfunction of the cognitive faculty was provoked in male rats having acquired an apprenticeship in a labyrinth in the form of a T and then the speed of recovery of the disturbed memory faculties was measured. The animals got accustomed to their new environment on days -9 to -6 and rested on days -5 and -4. Their apprenticeship was carried out on days -3 to 0. At this time, the response of the rats was positive at 75-80%. On day 0, the lesion was carried out and the animals rested on days +1 to +3. The animals were tested on day +4 and at this time, only 50% of the responses were positive. From day +5 to +8, the rats were tested after being treated orally with the products under test 1 hour earlier. On day +11, the rats were tested without treatment. The percentage of positive responses of the treated animals were compared in relation to the untreated animals.

[4] = system: hippocampus of the rat; test: Test for neuron activation (accumulation of 2-deoxyglucose-6-phosphate); type: in vivo; details: 14C 2-deoxyglucose tracer dose
Experimental: C: Test for neuron activation
Neuron activation causes an increase in the corresponding metabolism which is shown by an increase in the consumption of glucose, a proof of energy consumption. This increase was evaluated by measuring the accumulation in the neuron cells of 2deoxyglucose-6-phosphate stemming from the conversion by hexokinase of 2-deoxyglucose ^14 C, an analogue of glucose, administered as a tracer dose, which used the same route of entry into the cell as glucose.

## CN1C[C@H](CO)O[C@H](c2cccc3[nH]ccc23)C1 (relative stereo) [Example 3, (2RS, 6RS) 6-(1H-indol-4-yl)-4-methyl-2-morpholine methanol]
[1]
  LDO (maximum dose which does not cause mortality in 8 days): ≥ 400 mg/kg

## CSC[C@H]1CN(C)C[C@@H](c2cccc3[nH]ccc23)O1 (relative stereo) [Example 4, 4-[(2R-cis) 4-methyl-6-[(methylthio)methyl]-2-morpholinyl]-1H-indole (dl)]
[1]
  LDO (maximum dose which does not cause mortality in 8 days): 200 mg/kg
[2]
  decrease of the serous concentration of enolase γγ: 34%
[3]
  recovery of the memory functions: significantly improved the recovery of the memory functions
[4]
  accumulation of 2-deoxyglucose 6-P in the hippocampus: increase in the accumulation of 2-deoxyglucose 6-P

## CN1C[C@H](CC#N)O[C@H](c2cccc3[nH]ccc23)C1 (relative stereo) [Example 5, (2SR, 6RS) 6-(1H-indol-4-yl)-4-methyl-2-morpholine acetonitrile]
[1]
  LDO (maximum dose which does not cause mortality in 8 days): ≥ 200 mg/kg

## N,N-diethyl 6-(1H-indol-4-yl)-4-methyl-2-morpholine carboxamide [Example 2]
[1]
  LDO (maximum dose which does not cause mortality in 8 days): ≥ 200 mg/kg
